From patent publication US10080739B2, “Aryl imidazoles and their use as anti-cancer agents” (Aptose Biosciences Inc., priority 2003, dated 2018)
Read-outs that look alike come from different tables or passages of the source. Each block holds one compound with its values, some of them ahead of it.

Tests used:
[1] = test system: human colon carcinoma cells (HT-29); assay: XTT cell proliferation assay, HT-29 cells, 48 h; assay type: cell-based; conditions: read-out: % Survival; for viability at 25 µM: 25 μM compound; for viability at 100 µM: 100 μM compound
Procedure: (§1) Selected compounds of Formula I were tested for anti-cancer activity in vitro using a human colon carcinoma cells (HT-29) and human non-small cell lung cancer cells (H460). The cells were maintained in α-MEM medium (Wisent, St-Bruno, Qc) supplemented with 10% FBS, and grown at 37° C. in an atmosphere of 5% CO2. Cells were transferred onto 150 mm tissue culture plates and grown until sub-confluency (70-80%) prior to their use.
(§2) The anti-cancer activity in vitro was evaluated by a cell proliferation assay based on the ability of live cells to reduce the tetrazolium salt XTT to orange coloured compounds of formazan (XTT cell proliferation kit II, Roche Applied Science, Montreal, QC).
(§3) Approximately 4×10^3 colon cancer cells (HT-29) or 2×10^3 non-small cell lung cancer cells (NCI-H460) in 100 μl of complete culture medium were plated onto 96-well microtiter plates and incubated overnight at 37° C. The medium was then removed by inverting the plate and patting on a sterile absorbent cloth. Fifty μl of medium containing the test compound at either 25 or 100 μM, were added to the wells containing cells and incubated at 37° C. in an atmosphere of 5% CO2 for 48 h. Following incubation, 25 μl of an XTT reaction mixture (XTT at a final concentration of 0.3 mg/ml) were added to each well and the plates were incubated for a further 4 h. The absorbance of each sample was then determined at a wavelength of 490 nm/650 nm as reference. Each compound was tested in duplicate and the results are reported as averages.

[2] = test system: human non-small cell lung cancer cells (H460); assay: XTT cell proliferation assay, H460 cells, 48 h; assay type: cell-based; conditions: read-out: % Survival
Procedure: as §1, §2, §3

[3] = NCI-H460 cells, 25 μM compound, 48 h, XTT
[4] = NCI-H460 cells, 100 μM compound, 48 h, XTT

- melting point: 365 to 366 °C
SMILES: O=[N+]([O-])c1ccc2c3ccccc3c3nc(-c4c[nH]c5ccccc45)[nH]c3c2c1

- melting point: 210 to 215 °C
SMILES: Oc1ccc(-c2[nH]c(-c3c[nH]c4ccc(Br)cc34)nc2-c2ccccc2)cc1O [Compound 140]

SMILES: Brc1ccc(-c2nc(-c3c[nH]c4ccc(Br)cc34)[nH]c2-c2ccc(Br)cc2)cc1 [Compound 14]
- viability at 25 µM [1]: 55.2%
- viability at 100 µM [1]: 3.8%
- viability at 25 µM [2, 3]: 83.5%
- viability at 100 µM [2, 4]: 1.8%

- melting point: 264 to 265 °C
SMILES: Nc1ccc(-c2[nH]c(-c3c[nH]c4ccccc34)nc2-c2ccccc2)cc1 [Compound 182]

- melting point: 236 to 237 °C
SMILES: Brc1ccc2[nH]cc(C=Nc3ccc4c5ccccc5c5nc(-c6c[nH]c7ccc(Br)cc67)[nH]c5c4c3)c2c1

SMILES: Cc1[nH]c2ccccc2c1-c1nc(-c2ccccc2)c(-c2ccc(Cl)cc2)[nH]1 [Compound 31]
- viability at 25 µM [1]: 98.6%
- viability at 100 µM [1]: 24.9%
- viability at 25 µM [2, 3]: 94%
- viability at 100 µM [2, 4]: 37.6%

- melting point: 308 to 310 °C
SMILES: Brc1ccc2[nH]cc(-c3nc(-c4cccc5ccccc45)c(-c4ccccc4)[nH]3)c2c1 [Compound 181]

SMILES: COc1ccc(-c2nc(-c3ccccc3)c(-c3ccccc3)[nH]2)c(OC)c1 [Compound 73]
- viability at 25 µM [1]: 65%
- viability at 100 µM [1]: 62.2%
- viability at 25 µM [2, 3]: 89.2%
- viability at 100 µM [2, 4]: 53.5%

- melting point: 265 to 266 °C
SMILES: COc1ccc(-c2nc(-c3c[nH]c4ccc(Br)cc34)[nH]c2-c2ccccc2)cc1OC [Compound 96]

SMILES: O=[N+]([O-])c1ccc(-c2[nH]c(-c3c[nH]c4ccc(Br)cc34)nc2-c2ccccc2)cc1 [Compound 34]
- viability at 25 µM [1]: 22.8%
- viability at 100 µM [1]: 10.8%
- viability at 25 µM [2, 3]: 17.4%
- viability at 100 µM [2, 4]: 7.6%

SMILES: Clc1ccc(-c2nc(-c3c[nH]c4ccc(Br)cc34)[nH]c2-c2ccc(Cl)cc2)cc1 [Compound 20]
- viability at 25 µM [1]: 100%
- viability at 100 µM [1]: 28.1%
- viability at 25 µM [2, 3]: 98.6%
- viability at 100 µM [2, 4]: 82.1%

SMILES: Cc1[nH]c2ccccc2c1-c1nc(-c2ccccc2)c(-c2ccc(F)cc2)[nH]1 [Compound 35]
- viability at 25 µM [1]: 44.1%
- viability at 100 µM [1]: 2.5%
- viability at 25 µM [2, 3]: 83.8%
- viability at 100 µM [2, 4]: 1.2%

SMILES: Cc1[nH]c2ccccc2c1-c1nc(-c2cccs2)c(-c2cccs2)[nH]1 [Compound 25]
- viability at 25 µM [1]: 63.9%
- viability at 100 µM [1]: 39.8%
- viability at 25 µM [2, 3]: 99.5%
- viability at 100 µM [2, 4]: 89%

SMILES: Clc1ccc(-c2[nH]c(-c3c[nH]c4ccc(Br)cc34)nc2-c2ccccc2)cc1 [Compound 32]
- viability at 25 µM [1]: 22.7%
- viability at 100 µM [1]: 7.7%
- viability at 25 µM [2, 3]: 15%
- viability at 100 µM [2, 4]: 2.9%

SMILES: Cc1[nH]c2ccccc2c1-c1nc(-c2ccc(-c3ccccc3)cc2)c(-c2ccc(-c3ccccc3)cc2)[nH]1 [Compound 40]
- viability at 25 µM [1]: 79.1%
- viability at 100 µM [1]: 36.7%
- viability at 25 µM [2, 3]: 97.6%
- viability at 100 µM [2, 4]: 7.7%

SMILES: CC(=O)n1c(-c2c(C)n(C(C)=O)c3ccccc23)nc(-c2ccccc2)c1-c1ccccc1 [Compound 5]
- viability at 25 µM [1]: 111%
- viability at 100 µM [1]: 111%
- viability at 25 µM [2, 3]: 102%
- viability at 100 µM [2, 4]: 106%

SMILES: COC(=O)c1ccc2c(-c3nc(-c4ccccc4)c(-c4ccccc4)[nH]3)c[nH]c2c1 [Compound 83]
- viability at 25 µM [1]: 100%
- viability at 100 µM [1]: 110%
- viability at 25 µM [2, 3]: 101%
- viability at 100 µM [2, 4]: 109%

SMILES: Brc1ccc2[nH]cc(-c3nc(-c4ccccc4)c(-c4ccccc4)[nH]3)c2c1 [Compound 6]
- viability at 25 µM [1]: 11.7%
- viability at 100 µM [1]: 3.2%
- viability at 25 µM [2, 3]: 10.4%
- viability at 100 µM [2, 4]: 1.9%

SMILES: Cc1[nH]c2ccccc2c1-c1nc(-c2ccc(Br)cc2)c(-c2ccc(Br)cc2)[nH]1 [Compound 13]
- viability at 25 µM [1]: 106%
- viability at 100 µM [1]: 82.4%
- viability at 25 µM [2, 3]: 102%
- viability at 100 µM [2, 4]: 96.2%

SMILES: Brc1ccc(-c2[nH]c(-c3c[nH]c4ccc(Br)cc34)nc2-c2ccccc2)cc1 [Compound 43]
- viability at 25 µM [1]: 28%
- viability at 100 µM [1]: 5.7%
- viability at 25 µM [2, 3]: 18.8%
- viability at 100 µM [2, 4]: 3%

SMILES: COc1ccc(-c2nc(-c3c(C)[nH]c4ccccc34)[nH]c2-c2ccc(OC)cc2)cc1 [Compound 9]
- viability at 25 µM [1]: 68.3%
- viability at 100 µM [1]: 15.1%
- viability at 25 µM [2, 3]: 98.2%
- viability at 100 µM [2, 4]: 8.4%

SMILES: Cc1[nH]c2ccccc2c1-c1nc(-c2ccc(Oc3ccccc3)cc2)c(-c2ccc(Oc3ccccc3)cc2)[nH]1 [Compound 38]
- viability at 25 µM [1]: 67%
- viability at 100 µM [1]: 35.7%
- viability at 25 µM [2, 3]: 98.8%
- viability at 100 µM [2, 4]: 12.2%

SMILES: Cc1[nH]c2ccc(Br)cc2c1-c1nc(-c2ccc(Oc3ccccc3)cc2)c(-c2ccc(Oc3ccccc3)cc2)[nH]1 [Compound 39]
- viability at 25 µM [1]: 96.2%
- viability at 100 µM [1]: 53%
- viability at 25 µM [2, 3]: 98.1%
- viability at 100 µM [2, 4]: 17%

SMILES: CCc1c2c(nc3ccc(OC(=O)N4CCC(N5CCCCC5)CC4)cc13)-c1cc3c(c(=O)n1C2)COC(=O)[C@]3(O)CC [CPT-11, irinotecan, reference compound]
- viability at 25 µM [1]: 82.3%
- viability at 100 µM [1]: 51.1%
- viability at 25 µM [2, 3]: 32.2%
- viability at 100 µM [2, 4]: 6.1%

SMILES: Fc1ccc(-c2[nH]c(-c3c[nH]c4ccc(Br)cc34)nc2-c2ccccc2)cc1 [Compound 36]
- viability at 25 µM [1]: 31.6%
- viability at 100 µM [1]: 4.7%
- viability at 25 µM [2, 3]: 24.5%
- viability at 100 µM [2, 4]: 2.4%

SMILES: Cc1[nH]c2ccccc2c1-c1nc(-c2ccccc2)c(-c2ccc([N+](=O)[O-])cc2)[nH]1 [Compound 33]
- viability at 25 µM [1]: 56.1%
- viability at 100 µM [1]: 10%
- viability at 25 µM [2, 3]: 73.4%
- viability at 100 µM [2, 4]: 9.4%

SMILES: Cc1ccc(-c2nc(-c3c(C)[nH]c4ccccc34)[nH]c2-c2ccc(C)cc2)cc1 [Compound 23]
- viability at 25 µM [1]: 98.2%
- viability at 100 µM [1]: 45.7%
- viability at 25 µM [2, 3]: 96.3%
- viability at 100 µM [2, 4]: 92.1%

SMILES: c1ccc2c(-c3nc4c5ccccc5c5ccccc5c4[nH]3)c[nH]c2c1 [Compound 46]
- viability at 25 µM [1]: 16.1%
- viability at 100 µM [1]: 4.5%
- viability at 25 µM ([2]; NCI-H460, 48 h): 11.5%
- viability at 100 µM ([2]; NCI-H460, 48 h): 1.9%

SMILES: Cc1[nH]c2ccccc2c1-c1nc(-c2ccccc2)c(-c2ccc(Br)cc2)[nH]1 [Compound 42]
- viability at 25 µM [1]: 59.9%
- viability at 100 µM [1]: 1.8%
- viability at 25 µM [2, 3]: 66.1%
- viability at 100 µM [2, 4]: 1.2%

SMILES: Cc1[nH]c2ccccc2c1-c1nc(-c2ccc(N(C)C)cc2)c(-c2ccc(N(C)C)cc2)[nH]1 [Compound 11]
- viability at 25 µM [1]: 108%
- viability at 100 µM [1]: 94.3%
- viability at 25 µM [2, 3]: 98.8%
- viability at 100 µM [2, 4]: 102%

SMILES: Cc1[nH]c2ccccc2c1-c1nc(-c2ccncc2)c(-c2ccc(F)cc2)[nH]1 [Compound 27]
- viability at 25 µM [1]: 62.3%
- viability at 100 µM [1]: 35%
- viability at 25 µM [2, 3]: 93.5%
- viability at 100 µM [2, 4]: 43.1%

SMILES: Cc1[nH]c2ccccc2c1-c1nc(-c2cccc([N+](=O)[O-])c2)c(-c2cccc([N+](=O)[O-])c2)[nH]1 [Compound 29]
- viability at 25 µM [1]: 37.1%
- viability at 100 µM [1]: 20.9%
- viability at 25 µM ([2]; NCI-H460, 48 h): 73.8%
- viability at 100 µM ([2]; NCI-H460, 48 h): 20.2%

SMILES: Cc1[nH]c2ccccc2c1-c1nc2c3ccccc3c3ccccc3c2[nH]1 [Compound 44]
- viability at 25 µM [1]: 63.6%
- viability at 100 µM [1]: 6.5%
- viability at 25 µM ([2]; NCI-H460, 48 h): 77.3%
- viability at 100 µM ([2]; NCI-H460, 48 h): 3.4%

SMILES: COc1ccc(-c2nc(-c3c[nH]c4ccc(Br)cc34)[nH]c2-c2ccc(OC)cc2)cc1 [Compound 10]
- viability at 25 µM [1]: 25.8%
- viability at 100 µM [1]: 7.6%
- viability at 25 µM [2, 3]: 26.9%
- viability at 100 µM [2, 4]: 2.7%
